# Results published in patent US5463073A, “Thienoimidazole derivatives, their production and use” (Takeda Chemical Industries, Ltd., priority 1990, dated 1995).
# Key:
# [1] = molecular target: T1, angiotensin II (A-II) receptor (Bos taurus, UniProt P25104); test: Inhibition of binding of angiotensin II to angiotensin II receptor (radioreceptor assay, 125I-A-II, bovine adrenal cortex membrane fraction); settings: room temperature, 1 h; for inhibition at 1 µM: 10^-6 M; for inhibition at 0.1 µM: 10^-7 M
# T1 construct: membrane fraction was prepared from bovine adrenal cortex; from tissue; host or cells: bovine adrenal cortex membrane fraction
# T1 sequence (P25104 1-359): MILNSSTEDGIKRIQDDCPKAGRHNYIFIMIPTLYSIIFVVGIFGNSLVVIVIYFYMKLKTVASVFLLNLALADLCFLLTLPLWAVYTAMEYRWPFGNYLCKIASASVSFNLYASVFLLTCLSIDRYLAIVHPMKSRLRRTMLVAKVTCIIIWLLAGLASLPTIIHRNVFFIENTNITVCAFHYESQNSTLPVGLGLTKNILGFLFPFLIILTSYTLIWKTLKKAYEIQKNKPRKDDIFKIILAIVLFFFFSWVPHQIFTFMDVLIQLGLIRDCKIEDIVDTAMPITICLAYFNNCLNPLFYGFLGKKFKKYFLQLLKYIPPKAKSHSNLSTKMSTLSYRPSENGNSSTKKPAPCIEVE
# Procedure: Inhibitory Effect of Binding of Angiotensin-II to Angiotensin Receptor
# An experiment of inhibition on the binding of angiotensin II (A-II) receptor was conducted by modifying the method of Douglas et al. [Endocrinology, 102, 685-696 (1978)]. An A-II receptor membrane fraction was prepared from bovine adrenal cortex.
# The compound of the present invention (10^-6 M or 10^-7 M) and^125 I-angiotensin II (^125 I-A-II) (1.85 kBq/50 μl) were added to the receptor membrane fraction, and the mixture was incubated at room temperature for one hour. The receptor-bound and free ^125 I-A-II were separated through a filter (Whatman GF/B filter), and the radioactivity of ^125 I-A-II bound to the receptor was measured.
# [2] = system: A-II-induced pressor action; test: Inhibitory effect on pressor action of angiotensin II in rats (p.o.); assay type: in vivo, Jcl: SD rats; settings: Rattus norvegicus, po; 1 mg/kg p.o.; male SD rats; A-II 100 ng/kg i.v.; read-out: Pressor Response (percent inhibition of A-II-induced pressor action)
# Text: Inhibitory Effect of the Compound of the Present Invention on Pressor Action of Angiotensin
# Jcl: SD rats (9 week old, male) were employed. On the day previous to that of the experiment, these animals were applied with cannulation into the femoral artery and vein under anesthesia with pentobarbital Na. The animals were fasted but allowed to access freely to drinking water until the experiment was started. Just on the day of conducting the experiment, the artery cannula was connected with a blood-pressure transducer, and the average blood pressure was recorded by means of polygraph. Before administration of the drug, the pressor action due to intravenous administration of angiotensin II (A-II) (100 ng/kg) as the control was measured. The drugs were orally administered, then, at each point of the measurement, A-II was administered intravenously, and the pressor action was similarly measured. By comparing the pressor action before and after administration of the drug, the percent inhibition by the drug on A-II-induced pressor action was evaluated.
SMILES,inhibition at 1 µM [1],inhibition at 0.1 µM [1],inhibition in vivo at 1 mg/kg [2]
CSc1nc2c(C)sc(C(=O)O)c2n1Cc1ccc(-c2ccccc2-c2nn[nH]n2)cc1 [Working Example 15],50%,14%,≥ 70%
CCSc1nc2c(C)sc(C(=O)O)c2n1Cc1ccc(-c2ccccc2-c2nn[nH]n2)cc1 [compound 2],64%,18%,≥ 70%
CCSc1nc2c(C)sc(C(=O)OC)c2n1Cc1ccc(-c2ccccc2-c2nn[nH]n2)cc1 [compound 1],91%,68%,30 to 50%
"Cc1sc(C(=O)O)c2c1nc(SC(C)C)n2Cc1ccc(-c2ccccc2-c2nnn[nH]2)cc1 [Working Example 17, 2-Isopropylthio-4-methyl-1-[[2'-(1H-tetrazol-5-yl]-biphenyl-4-yl]methyl]thieno[3,4-d]imidazole-6-carboxylic acid]",64%,26%,≥ 70%
"CCCCSc1nc2c(C)sc(C(=O)O)c2n1Cc1ccc(-c2ccccc2-c2nn[nH]n2)cc1 [Working Example 18, 2-Butylthio-4-methyl-1-[[2',(1H-tetrazol-5-yl)biphenyl-4-yl]methyl]thieno[3,4-d]imidazole-6-carboxylic acid]",66%,33%,30 to 50%
"CCSc1nc2csc(C(=O)O)c2n1Cc1ccc(-c2ccccc2-c2nnn[nH]2)cc1 [Working Example 22, 2-Ethylthio-1-[[2'-(1H-tetrazol-5-yl)biphenyl-4-yl]methyl]thieno[3,4-d]imidazole-6-carboxylic acid]",84%,45%,50 to 70%

# Now from value to compound, other results behind:
inhibition at 1 µM [1],inhibition at 0.1 µM [1],SMILES,inhibition in vivo at 1 mg/kg [2]
77%,55%,COC(=O)c1sc(C)c2nc(SC)n(Cc3ccc(-c4ccccc4-c4nn[nH]n4)cc3)c12 [compound 7],30 to 50%
65%,19%,COc1nc2c(C)sc(C(=O)O)c2n1Cc1ccc(-c2ccccc2-c2nn[nH]n2)cc1 [compound 28],≥ 70%
72%,33%,CCCOc1nc2c(C)sc(C(=O)O)c2n1Cc1ccc(-c2ccccc2-c2nn[nH]n2)cc1 [compound 30],
89%,59%,CCSc1nc2c(C)sc(C(=O)OCOC(=O)C(C)(C)C)c2n1Cc1ccc(-c2ccccc2-c2nn[nH]n2)cc1 [compound 5],≥ 70%
84%,46%,CCSc1nc2c(C)sc(C(=O)OC(C)OC(=O)OC3CCCCC3)c2n1Cc1ccc(-c2ccccc2-c2nn[nH]n2)cc1 (stereo not drawn) [compound 6],≥ 70%
92%,73%,COc1nc2c(C)sc(C(=O)OCOC(C)=O)c2n1Cc1ccc(-c2ccccc2-c2nn[nH]n2)cc1 [compound 36],≥ 70%
67%,39%,CCOc1nc2c(C)sc(C(=O)O)c2n1Cc1ccc(-c2ccccc2-c2nn[nH]n2)cc1 [compound 29],
75%,26%,CCNc1nc2c(C)sc(C(=O)O)c2n1Cc1ccc(-c2ccccc2-c2nn[nH]n2)cc1 [compound 31],
